Results taken from paper PMC12281142, “A potent phenylalkylamine disrupts mycobacterial membrane bioenergetics and augments bactericidal activity of bedaquiline” (iScience, 2025).
Values after ≈ are worked out from the molar mass of the structure shown. Read-outs that look alike come from different tables or passages of the source.

Legend:
M. bovis BCG [1] = experiment: microbe, parasite or virus in culture; type: cell-based, Mycobacterium bovis BCG
Mtb H37Rv = experiment: MIC by broth microdilution against Mtb H37Rv; type: cell-based, Mycobacterium tuberculosis; conditions: incubation 5 days
Mab abscessus ATCC 19977 = experiment: MIC against Mab abscessus ATCC 19977; type: cell-based, Mycobacterium abscessus subsp. abscessus; conditions: for MIC90: read-out: MIC90 Mab abscessus ATCC 19977; for MIC50 Mab abscessus ATCC 19977: 3 days
[2] = test system: Mab massiliense CCUG 48898-T; experiment: MIC against Mab massiliense CCUG 48898-T; type: cell-based, Mycobacterium abscessus subsp. massiliense; conditions: for MIC50 Mab massiliense CCUG 48898-T: 3 days
[3] = test system: Mab bolletii CCUG 50184-T; experiment: MIC against Mab bolletii CCUG 50184-T; type: cell-based, Mycobacterium abscessus subsp. bolletii; conditions: for MIC50 Mab bolletii CCUG 50184-T: 3 days
Vero E6 = experiment: Cytotoxicity in Vero E6 cells; type: cell-based, African green monkey; conditions: 48 h, growth suppressed by 50% vs untreated
Description: (§1) To each well in a 96-well plate, 50,000 cells in 100 μL media were seeded. Vero E6 and HepG2 cells were incubated overnight in DMEM for cell adherence at 37°C and 5% CO2. The media was removed from the wells and 100 μL solution made up of fresh DMEM media (99 μL) and the test compound (1 μL from a DMSO stock solution that was […] more concentrated than the final concentration in the well) was then added to each well. DMSO content of each well was consistently kept at 0.5 %v/v. Treated plates were incubated for 48 h (5% CO2, 37°C), after which 10 μL of Celltitre 96 Aqueous One Solution was added to each well, without removal of media, and incubated for a further 3 h. Subsequently, absorbance readings were taken at 490 nm on a Tecan GENios Microplate Reader.
(§2) Cell viability was determined from the expression: Cellviability(%)={[Absorbance(cells+cpd)−Absorbance(cpd)]/[Absorbance(cells+vc)−Absorbance(vc)]}×100% where Absorbance (cells + cpd) = absorbance of wells containing cells and test compound in vehicle (media +0.5% DMSO); Absorbance (cpd) = absorbance of wells containing test compound in vehicle without cells (compound control); Absorbance (cells + vc) = absorbance of wells containing cells in vehicle (vc) only (untreated cells); Absorbance (vc) = absorbance of wells containing vehicle without cells (vehicle control). The percentage viability readings were plotted against log(concentration) on GraphPad Prism (Version 7.0, San Diego, CA) to give a sigmoidal curve, from which IC50, defined as the concentration of the compound that reduced cell viability by 50%, was obtained. At least 3 separate determinations were carried out.

HepG2 = experiment: Cytotoxicity in HepG2 cells; type: cell-based, human; conditions: 48 h, growth suppressed by 50% vs untreated
Description: as §1, §2

clinical isolates of Mab = experiment: MIC50 against Mab clinical isolates; type: cell-based, Mycobacterium abscessus; conditions: range over isolates
M. bovis BCG [4] = type: cell-based, Mycobacterium bovis BCG
M. smegmatis mc2155 = experiment: MIC against M. smegmatis mc2155; type: cell-based, Mycobacterium smegmatis; conditions: Mycolicibacterium smegmatis
[5] = 7H9 medium (first value of cell)
[6] = CA-MHB medium (second value of cell)

For COc1ccc(CCN(C)CCCC(C#N)(C/C=C(\C)CCC=C(C)C)c2ccc(OC)c(OC)c2)cc1OC (racemic) [PhA3], the MIC50 (M. bovis BCG [1]) was 11 µM (≈ 6.04 µg/mL), the “MIC50 BCG With Glycerol” value (M. bovis BCG [1]) was 11 µM (≈ 6.04 µg/mL) and the “MIC50 BCG Without Glycerol” value (M. bovis BCG [1]) was 18 µM (≈ 9.88 µg/mL). The “MIC90 (Table S1)” value (M. bovis BCG [1]) was 22 µM (≈ 12.1 µg/mL), the “MIC50 Mtb H37Rv” value (Mtb H37Rv; first value of cell MIC50/MIC90) was 19 µM (≈ 10.4 µg/mL) and the MIC90 (Mtb H37Rv; second value of cell MIC50/MIC90, read-out: MIC90 Mtb H37Rv) was 42 µM (≈ 23 µg/mL). The MIC90 (Mab abscessus ATCC 19977; 7H9 broth (first value)) was 104 µM (≈ 57.1 µg/mL), the “MIC50 Mab abscessus ATCC 19977” value (Mab abscessus ATCC 19977; [5]) was 47 µM (≈ 25.8 µg/mL) and the “MIC50 Mab abscessus ATCC 19977” value (Mab abscessus ATCC 19977; [6]) was 17 µM (≈ 9.33 µg/mL). The MIC90 (Mab abscessus ATCC 19977; camH broth (second value)) was 31 µM (≈ 17 µg/mL), the MIC90 ([2]; 7H9 broth (first value)) was 96 µM (≈ 52.7 µg/mL) and the “MIC50 Mab massiliense CCUG 48898-T” value [2, 5] was 42 µM (≈ 23 µg/mL). The “MIC50 Mab massiliense CCUG 48898-T” value [2, 6] was 10 µM (≈ 5.49 µg/mL), the MIC90 ([2]; camH broth (second value)) was 56 µM (≈ 30.7 µg/mL) and the MIC90 ([3]; 7H9 broth (first value)) was 98 µM (≈ 53.8 µg/mL). For the same compound, the “MIC50 Mab bolletii CCUG 50184-T” value [3, 5] was 47 µM (≈ 25.8 µg/mL), the “MIC50 Mab bolletii CCUG 50184-T” value [3, 6] was 13 µM (≈ 7.13 µg/mL) and the MIC90 ([3]; camH broth (second value)) was 26 µM (≈ 14.3 µg/mL). For the same compound, the IC50 (Vero E6) was 27 µM, the IC50 (HepG2) was 32 µM and the “MIC50 seven Mab clinical isolates” value (clinical isolates of Mab) was 12 to 21 µg/mL. The “CFUs above the detection limit” value (M. bovis BCG [4]) was 10–100 times.

Work on COc1ccc(CCN(C)CCCC(C#N)(CCCCCCCN=[N+]=[N-])c2ccc(OC)c(OC)c2)cc1OC (stereo not shown) [AZ-2] yielded an MIC90 (M. bovis BCG [1]; Mycobacterium tuberculosis variant bovis BCG, BCG, M. bovis BCG, broth dilution, growth reduced by 90% vs untreated) of 27 µM (≈ 14.9 µg/mL), an MIC50 (M. bovis BCG [1]; Mycobacterium tuberculosis variant bovis BCG, BCG, read-out: M. bovis BCG MIC50 (Table S4)) of 12 µM (≈ 6.62 µg/mL) and an MIC90 (M. bovis BCG [1]; Mycobacterium tuberculosis variant bovis BCG, BCG, read-out: M. bovis BCG MIC90 (Table S4)) of 27 µM (≈ 14.9 µg/mL). The MIC50 (M. smegmatis mc2155; MC2155, 24 h, incubation 1 day, read-out: M. smegmatis mc2155 MIC50 (Table S4)) was 38 µM (≈ 21 µg/mL), the MIC90 (M. smegmatis mc2155; MC2155, 24 h, incubation 1 day, read-out: M. smegmatis mc2155 MIC90 (Table S4)) was 58 µM (≈ 32 µg/mL) and the MIC90 (M. smegmatis mc2155; MC2155, read-out: MIC90 M. smegmatis) was 58 µM (≈ 32 µg/mL).

With COc1ccc(CCN(C)CCCC(C#N)(c2ccc(OC)c(OC)c2)C2CCCCCCC2)cc1OC (stereo not shown) [PhA4] the MIC50 (M. bovis BCG [1]) was 23 µM (≈ 12 µg/mL), the MIC90 (M. bovis BCG [1]) was 44 µM (≈ 23 µg/mL) and the “MIC90 (Table S1)” value (M. bovis BCG [1]) was 44 µM (≈ 23 µg/mL).

COc1ccc(CCN(C)CCCC(C#N)(Cc2ccc(Br)cc2)c2ccc(OC)c(OC)c2)cc1OC (stereo not shown) [PhA5] was tested, and the MIC50 (M. bovis BCG [1]) was 17 µM (≈ 9.89 µg/mL), the MIC90 (M. bovis BCG [1]) was 43 µM (≈ 25 µg/mL) and the “MIC90 (Table S1)” value (M. bovis BCG [1]) was 43 µM (≈ 25 µg/mL).

For COc1ccc(CCN(C)CCCC(C#N)(Cc2cccc(Cl)c2)c2ccc(OC)c(OC)c2)cc1OC (stereo not shown) [PhA6], the MIC50 (M. bovis BCG [1]) was 17 µM (≈ 9.13 µg/mL), the MIC90 (M. bovis BCG [1]) was 45 µM (≈ 24.2 µg/mL) and the “MIC90 (Table S1)” value (M. bovis BCG [1]) was 45 µM (≈ 24.2 µg/mL).

In the case of COc1ccc(CCN(C)CCCC(C#N)(c2ccc(Cl)c(Cl)c2)C(C)C)cc1OC (stereo not shown) [PhA7], the MIC50 (M. bovis BCG [1]) is reported as 27 µM (≈ 12.5 µg/mL), the MIC90 (M. bovis BCG [1]) is reported as 47 µM (≈ 21.8 µg/mL) and the “MIC90 (Table S1)” value (M. bovis BCG [1]) is reported as 47 µM (≈ 21.8 µg/mL).
